The test system of assay [1] is hepatitis virus B (HBV) infection. As to the kind of experiment: HepG2 NTCP assay (HBcAg staining as marker of HBV infection). Conditions: HepG2-NTCP cells infected with HBV, HBV core antigen (HBcAg) as marker of infection. In kind it is cell-based. Put shortly: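 HepG2-NTCP cells were infected with HBV (4% PEG, 1% DMSO) in the presence of compound overnight, then re-dosed and incubated 5 days at 37 °C. HBcAg immunofluorescence was imaged, with DAPI nuclei count taken as toxicity. Ten-point 1/3 dilutions gave % inhibition against 0.2% DMSO vehicle and 100 nM Myrcludex B, with dose-response curves fitted.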

Assay [2] shares this test system. The assay can be described thus: iCell hepatocytes assay, delayed assay (compounds added three days after HBV infection). It counts as cell-based. Conditions: for EC50: Hepatitis B virus, Hepatocyte, HBs ELISA. The procedure: The principle of the iCell hepatocyte 2.0 96 well assay is to evaluate the inhibitory effect of a test compound on hepatitis virus B (HBV) infection. In this assays the HBV core antigen (HBcAg) and/or extracellular antigen (HBeAg) and/or surface antigen (HBsAg) are used as a marker for HBV infection. Nuclei count may be used as an indication for compound toxicity.
In the standard assay set-up HBV infection and compound addition are performed on the same day, in the delayed assay the compounds are added three days after HBV infection. iCell hepatocytes 2.0 are human hepatocytes derived from induced pluripotent stem cells (iPSc) purchased from Cellular Dynamics international (CDI, R1027).
At day 0, iCell hepatocytes 2.0 (CDI, R1027) are thawed and seeded in collagen I coated 96well plates at 112 000c/well (100µL) in plating medium (RPMI supplemented with B27 supplement, 20 ng/mL recombinant human oncostatin M (OSM), 25µg/mL gentamicin, 0.1µM Dexamethasone and iCell medium supplement provided by CDI). Plates are incubated at 37°C, 5% CO2 and daily refreshed with plating medium for the following four days.
On day 5 and 6, plates are refreshed with 100µL maintenance medium (RPMI supplemented with B27 supplement, 25µg/mL gentamicin, 0.1µM Dexamethasone, and iCell medium supplement provided by CDI) and incubated at 37°C, 5% CO2 until the following day.
On day 7 (day of infection), the maintenance medium is removed from the assay plates and cells are infected with 50 µL of HBV mix (HBV virus, 4% PEG, 0% or 2% DMSO in maintenance medium). The assay plates were incubated overnight at 37°C, 5% CO2.
At day 1 post infection (day8), 50µL of HBV mix is removed from the assay plates and refreshed with 100 µL of maintenance medium. The assay plates are incubated at 37°C, 5% CO2 for three days.
At day 4 post infection (day 11) and day 7 post infection (day14), the supernatant is removed and 100 µL of compound series diluted 1/500 in maintenance medium is added to the assay plates (8 point serial dilution using 1/3 dilution steps in 100% DMSO or 8 point serial dilution using ¼ dilution steps, normalized for 0.2% DMSO. The assay plates were incubated at 37°C, 5% CO2 for three days.
At day 10 post infection (day 17), 100µL of supernatant is harvested and frozen to -20°C. The cells are fixed with 50 µL of 3.7% formaldehyde and incubated for 30 min at room temperature. After fixation, cells are washed four times with phosphate buffer saline (PBS) with the plate washer (Select 405, microplate washer, Biotek) and subjected to HBc staining. harvested supernatant is used for HBe and/or HBs ELISA.
The assay plates are blocked with blocking buffer (2% FBS, 3% BSA, 0.2% TritonX100 in PBS) for 1 h at room temperature.
After blocking, the assay plates are tapped manually and incubated with 50 µL diluted primary antibody (1/700 Rabbit-anti-HBc Ag, Dako, B0586 or 1/350 Rabbit-anti-HBc Ag, Invitrogen, PA516368) in blocking buffer and incubated for 90 min at room temperature.
After 4 washes of PBST (1XPBS + 0.05% Tween) with the plate washer, the assay plates are incubated with 100 µL of secondary antibody (Donkey-anti-rabbit Alexa 488, Lifetechnologies, A21206) 1/500 diluted in blocking buffer and incubated for 60 min at room temperature in the dark, then washed 4 times with PBST on the plate washer and incubated with 100µL of DAPI (Sigma D9542, stock 5mg/mL) 1/10000 diluted in PBS for 15-30 min at room temperature in the dark.
Finally, the assay plates are read out on a InCell Analyzer 2200 (GE Healthcare). […]
After blocking, 30 µL of sample and HBe Ag standard (recombinant hepatitis B virus E antigen protein, 4mg/mL, Abcam, ab91273) are added to the plate. The HBe Ag standard is 1/3 diluted in blocking buffer starting from 1.25µg/mL. A vehicle control is also included. The plate is incubated for 30 min at room temperature.
After sample incubation, the plates are washed 4 times with PBST on a platewasher followed by 2 washed of PBS. […]

Experimental findings from patent EP3720857B1, “2-OXO-5H-CHROMENO[4,3-B]PYRIDINES FOR USE IN THE TREATMENT OF HEPATITIS B” (Galapagos NV, priority 2017, dated 2019) are described below.

The structures appear in SMILES notation. Some results are limits rather than exact numbers.

`COCCCOc1cc2c(cc1Cl)-c1c(cc(C(=O)O)c(=O)n1C1CC1)C(C1(C)COC1)O2` (stereo not drawn) [Compound 2, 9-chloro-1-cyclopropyl-8-(3-methoxypropoxy)-5-(3-methyloxetan-3-yl)-2-oxo-5H-chromeno[4,3-b]pyridine-3-carboxylic acid] came in with an IC50 in assay [1] of 0.001 to 1 nM. In assay [2], the “Delayed assay HBs ELISA % inhibition” value is reported as “++ (50-75%)” and the EC50 is 0.001 to 20 nM.

`COc1cc2c(cc1OC)-c1c(cc(C(=O)O)c(=O)n1C1CC1)C(C(C)C)O2` (stereo not drawn) [Compound 3, 1-cyclopropyl-5-isopropyl-8,9-dimethoxy-2-oxo-5H-chromeno[4,3-b]pyridine-3-carboxylic acid]: in assay [1], the IC50 is 1 to 20 nM. In assay [2], the “Delayed assay HBs ELISA % inhibition” value is “+++ (75-100%)” and the 50% effective concentration (EC50) was above 50 nM.

`COCCCOc1cc2c(cc1Cl)-c1c(cc(C(=O)O)c(=O)n1C1CC1)C(C(C)C)O2` (stereo not drawn) [Compound 4, 9-chloro-1-cyclopropyl-5-isopropyl-8-(3-methoxypropoxy) -2-oxo-5H-chromeno[4,3-b]pyridine-3-carboxylic acid]: the half-inhibitory concentration (IC50) in assay [1] lay within 0.001 to 1 nM. Also, in assay [2], the “Delayed assay HBs ELISA % inhibition” value is reported as “++ (50-75%)” and the half-maximal effective concentration (EC50) was in the range of 0.001 to 20 nM.

For the compound `COCCCOc1cc2c(cc1Cl)-c1c(cc(C(=O)O)c(=O)n1C1CCC1)C(C(C)C)O2` (stereo not drawn) [Compound 17, 9-chloro-1-cyclobutyl-5-isopropyl-8-(3-methoxypropoxy) -2-oxo-5H-chromeno[4,3-b]pyridine-3-carboxylic acid], the IC50 in assay [1] is 0.001 to 1 nM. Further, in assay [2], the “Delayed assay HBs ELISA % inhibition” value is recorded as “+++ (75-100%)” and the EC50 is 0.001 to 20 nM.

In assay [1], `COCCCOc1cc2c(cc1Cl)-c1c(cc(C(=O)O)c(=O)n1C1CC1)[C@@H](C1(C)COC1)O2` [Compound 47, (5S)-9-chloro-1-cyclopropyl-8-(3-methoxypropoxy)-5-(3-methyloxetan-3-yl)-2-oxo-5H-chromeno[4,3-b]pyridine-3-carboxylic acid] had an IC50 of 1 to 20 nM. For the same compound, in assay [2], the “Delayed assay HBs ELISA % inhibition” value is “++ (50-75%)” and the EC50 fell in the range of 22 to 50 nM.
